From US20160008298A1, “XANTHOHUMOL-BASED COMPOUNDS AND COMPOSITIONS THEREOF, AND METHODS OF MAKING AND USING THE SAME” (Oregon State University, priority 2014, published 2016)

How the values were obtained:
C57BL6/J mice = assay: Plasma metabolites at sacrifice; assay type: in vivo, mouse; conditions: 14 weeks, 30 mg/kg/day; for Mean fasting plasma glucose at time of sacrifice: 6 hour fast, control 158.2±29.6; for Insulin level average: control 1.01±0.44; for Average plasma triglycerides: control 87.5±6.6; for Plasma cholesterol average: control 173.9±31.9
Procedure: The total number of C57BL6/J mice was 48, with 12 mice belonging to each of 4 treatment groups. Duration of the feeding was 14 weeks. Mouse feed contained high fat content (60% of kCal), and was supplemented with XN, DXN, or TXN in the treatment groups. XN, DXN and TXN content within the mouse diet were designed to deliver a dose of 30 mg/kg/day body weight. Food intake was measured three times per week by weighing the food pellet before placement in the cage, and at the time of feed changing by weighing uneaten food. Mice were unrestricted in dietary intake, being allowed to eat as much food as desired. Mice were weighed once per week. Groups included low dose (30 mg/kg) XN, DXN, TXN and no supplement control. Mice were maintained in accordance with the Oregon State University Institutional Animal Care and Use Committee (IACUC) regulations. One mouse was maintained on a standard AIN-93M chow diet to be used as a healthy reference during glucose tolerance assays.
Plasma was collected at sacrifice (14 weeks) to analyze for plasma glucose, triglycerides, cholesterol and insulin. Plasma glucose was assayed using the Wako Autokit Glucose kit (Wako Pure Chemical Industries, Ltd.). […] Samples were allowed to incubate for 5 minutes, and then the absorbance of each well was measured at a wavelength of 505 nm using a SpectraMax 190 spectrophotometer. Glucose was calculated using a 6-point calibration curve containing concentrations of 0, 25, 50, 100, 200 and 400 mg/dL.
Plasma triglycerides were measured using the Infinity™ Triglycerides Reagent kit (Thermo Fisher Scientific, Inc.). […] Absorbance at 500 nm was then measured on a SpectraMax 190 spectrophotometer. Triglyceride levels were calculated from a 6-point calibration curve.
Plasma cholesterol was measured using the Infinity™ Cholesterol Liquid Stable Reagent assay kit (Thermo Fisher Scientific, Inc.). Five μL of plasma from each sample was combined with 195 μL of Infinity™ Cholesterol Liquid Stable Reagent (50 mM phosphate buffer (pH 6.7) containing 200 U/L cholesterol oxidase, 500 U/L cholesterol esterase, 300 U/L peroxidase (horseradish), 0.25 mM 4-aminoantipyrine, 10 mM hydroxybenzoic acid) and incubated for 5 minutes at room temperature. Cholesterol absorbance was then measured using a SpectraMax 190 spectrophotometer at 500 nm, and concentrations were calculated using a 6-point calibration curve.
Plasma insulin levels were assayed using the ALPCO 80-INSMS-E01 mouse insulin enzyme-linked immunosorbent assay (ELISA) kit (ALPCO diagnostics, Salem, N.H.). Ten μL of plasma from each sample was loaded into a 96-well plate (provided in kit) and combined with 75 μL of provided conjugate buffer. The plate was placed on a shaker and incubated for 2 hours at room temperature while shaking at 800 rpm. The buffer was then discarded and the wells were washed 5 times with 100 μL of provided wash buffer. […] After incubation, 100 μL of stop solution was added to each well, and the plate was analyzed on a SpectraMax 190 spectrophotometer at 450 nm. Sample insulin concentrations were calculated using a 6-point calibration curve.

[1] = Dissolution in Seahorse running medium; assay type: physicochemical; conditions: 0.1% of FBS, 37° C.
C2C12 mouse myocytes = assay: Cellular uptake by LC-MS/MS; assay type: in vitro ADME; conditions: 5 μM, one hour
Procedure: Cellular uptake investigations were performed using C2C12 mouse myocytes. Cells were cultured in 75 cm2 flasks using Dulbecco's Modified Eagle Medium (DMEM) obtained from Sigma-Aldrich, which was supplemented with 10% Fetal Bovine serum (FBS) and 1% penicillin/streptomycin solution (PS). Cultures were maintained in an incubator at 37° C. and 5% CO2.
Uptake comparisons were conducted by seeding three 12-well plates with 1 mL of C2C12 cells in suspension with a density of 100,000 cells/mL, which were then incubated until confluent. Four treatment groups were compared, including XN, DXN, TXN and a no compound control. Each compound was tested in quadruplicate in the presence of cells and in medium not exposed to cells. Medium not exposed to cells was examined for compound concentration to help account for protein binding in medium. Confluent cells were subsequently treated with fresh DMEM containing 1% FBS, 1% PS, as well as 5 μM XN, DXN, or TXN and incubated at 37° C. and 5% CO2 for one hour. Following incubation, cell medium was collected and the cells were washed once using Hanks Balanced Salt Solution (HBSS). HBSS was then aspirated, and 0.5 mL of cell extraction buffer (50% methanol:ethanol, v:v) was added to each well and the plates were covered with a plastic adhesive plate cover. The plates were placed in a freezer and maintained at −80° C. for 24 hours. After freezing, the plates were removed from the freezer and the cells were removed from the wells using a cell scraper and collected. An additional 0.5 mL of extraction buffer was added to each well as a rinse, which was collected and added to the cell extracts. […]
All cell culture samples were analyzed by LC-MS/MS using an Applied Biosystems API 4000 Q-trap triple quadrupole mass spectrometer. […] Once concentrations could be determined, mass balance of XN, DXN or TXN was calculated based on the average total volume of the sample, approximately 0.995 mL for cell medium, and 0.75 mL for cellular extracts.

C2C12 muscle mouse cells = assay: Seahorse cell titration assay; assay type: cell-based; conditions: 2 μM, 20,000 cells/well
Procedure: As advised by Seahorce Bioscience, running a cell titration assay with FCCP at different concentrations prior to any Seahorse experiment is an important step to determine proper cell density for the cell line used. Then, oligomycin was tested at different concentrations at the proper cell density in order to determine the optimal working concentration. These optimization and titration assays offered starting conditions in determining the uncoupling effects on the mitochondria.
In the cell titration assay, cells were plated at 10,000, 20,000 and 40,000 cells/wells and FCCP was injected at 0.3 μM or 0.5 μM. […] DXN was also injected at 2 μM at 20,000 cells/well to have an idea of its potential effects on OCR.

C2C12 cells = assay: MTT cell viability assay; assay type: cell-based, mouse; conditions: for cell viability after one hour of exposure: C2C12, 1 hour, up to 50 μM; for concentration at which cell viability was decreased: C2C12, 24 hours of exposure
Procedure: Mouse C2C12 skeletal muscle myoblasts (purchased from ATCC, Manassas, Va., USA) were first seeded in 75 cm2 flasks using a culture medium consisting of DMEM (Life Technologies, Grand Island, N.Y., USA), 10% fetal bovine serum (FBS; Atlanta Biologicals, Lawrenceville, Ga., USA), high glucose, L-glutamine, phenol red, 1 mM sodium pyruvate and 100 units/mL penicillin, 100 μg/mL streptomycin. The C2C12 cells were incubated at 37° C. in a humidified atmosphere of 5% CO2 until they were confluent. Then, they were obtained by trypsinization and seeded at a specific density in the plates of choice depending on the experiment.
For cell viability experiments (MTT assay), C2C12 cells were plated in 96-well plates at a density of 4,000 cells per well in 200 μL of growth medium (identical to the culture medium). After 48 hours of incubation, the medium was removed and the cells were treated with fresh solutions of various concentrations of XN, DXN or TXN in phenol red-free growth medium. The final concentrations of XN, DXN, TXN were 1, 2, 5, 8, 10, 25, 50 μM, all in quadruplicate wells, in the 96-well plates. The medium used consists of phenol red free DMEM (Life Technologies, Grand Island, N.Y., USA), 10% FBS, 1% glutamine, 1 mM of sodium pyruvate and 100 units/mL penicillin, 100 μg/mL streptomycin. The plates were then incubated for 24 hours or 1 hour. After removing the medium, the cells were treated with 0.5 mg/mL solution of MTT 3-(4,5-dimethylthiazol-2-yl)-2,5-diphenyltetrazolium bromide in phenol red-free growth medium and incubated for two hours. After removing the medium and adding a solution of acidified isopropanol to each well, the absorbance of each well was measured at 570 nm by using a spectrometer (SpectraMax 190).
Two MTT assays were conducted (FIGS. 11A and 11B): after one hour and 24 hours of exposure.

[2] = Mouse feeding experiment, weight gain; assay type: in vivo; conditions: 30 mg/kg/day in high fat diet, 12 weeks
Procedure: Over the course of 12 weeks, mouse weights were recorded once per week and the average weights were calculated for each group.

[3] = Low and high XN diet feeding for 12 weeks, body weight and food intake; assay type: in vivo, mouse; conditions: high-fat fed C57BL/6J mice; for body weight gain compared to vehicle: oral, 12 weeks
Procedure: FIG. 27 is a graph showing weekly body weights of C57BL/6J mice fed control, low XN (30 mgkg body weight/day) and high XN (60 mg/kg body weight/day) diets for 12 weeks.
FIG. 28 is a graph showing no difference in food intake between treated and untreated mice for the studies from FIG. 27.

mice [4] = conditions: mouse; cited from earlier work
mice [5] = assay: Mouse LD50; assay type: in vivo

Structure (SMILES): COc1cc(O)c(CC=C(C)C)c(O)c1C(=O)CCc1ccc(O)cc1 [DXN, α,β-dihydroxanthohumol]
- Mean fasting plasma glucose at time of sacrifice (C57BL6/J mice): 150.5 ± 45.0 mg/dL
- Insulin level average (C57BL6/J mice): 1.04 ± 0.77 ng/mL
- Average plasma triglycerides (C57BL6/J mice): 84.5 ± 4.9 mg/dL
- Plasma cholesterol average (C57BL6/J mice): 167.2 ± 33.3 mg/dL
- concentration dissolved in running medium [1]: up to 25 μM
- cellular uptake (of total amount of compound applied to cells) (C2C12 mouse myocytes): 7.8%
- increase of OCR (C2C12 muscle mouse cells): 204 % of the baseline
- cell viability after one hour of exposure (C2C12 cells): did not significantly affect cell viability
- concentration at which cell viability was decreased (C2C12 cells): 8 µM
- weight gain compared to the control [2]: followed DXN, then XN

Structure (SMILES): COc1cc(O)c(CCC(C)C)c(O)c1C(=O)CCc1ccc(O)cc1 [TXN, tetrahydroxanthohumol]
- Mean fasting plasma glucose at time of sacrifice (C57BL6/J mice): 116.1 ± 24.1 mg/dL
- Insulin level average (C57BL6/J mice): 0.500 ± 0.24 ng/mL
- Average plasma triglycerides (C57BL6/J mice): 76.4 ± 7.8 mg/dL
- Plasma cholesterol average (C57BL6/J mice): 160.7 ± 30.7 mg/dL
- cellular uptake (of total amount of compound applied to cells) (C2C12 mouse myocytes): 6.9%
- cell viability after one hour of exposure (C2C12 cells): did not significantly affect cell viability
- concentration at which cell viability was decreased (C2C12 cells): 25 µM
- weight gain compared to the control [2]: most dramatic reduction in weight gain compared to the control

Structure (SMILES): COc1cc(O)c(CC=C(C)C)c(O)c1C(=O)/C=C/c1ccc(O)cc1 [XN, xanthohumol]
- food intake ([3]; 30 and 60 mg/kg): not altered
- body weight gain compared to vehicle ([3]; 30 mg/kg (low dose)): gain less weight
- body weight gain compared to vehicle ([3]; 60 mg/kg (high dose)): gain less weight
- Mean fasting plasma glucose at time of sacrifice (C57BL6/J mice): 169.1 ± 28.7 mg/dL
- Insulin level average (C57BL6/J mice): 1.19 ± 0.68 ng/mL
- Average plasma triglycerides (C57BL6/J mice): 80.7 ± 4.2 mg/dL
- Plasma cholesterol average (C57BL6/J mice): 196.2 ± 28.3 mg/dL
- cellular uptake (of total amount of compound applied to cells) (C2C12 mouse myocytes): approximately 6.6%
- cell viability after one hour of exposure (C2C12 cells): did not significantly affect cell viability
- concentration at which cell viability was decreased (C2C12 cells): 50 µM
- weight gain compared to the control [2]: followed DXN, then XN
- LD50 (mice [4]): > 2000 mg/kg
- LD50 dose relative to the effective dose level (mice [5]): more than 50 times
